In assay [1] the test system is HKCs. Description: Treatment of differentiating HKCs with ER ligands, RT-qPCR and immunoblot analysis. The assay is classed as cell-based, human. As to conditions: differentiating HKCs (100% confluence), 72 hours; 10 nM E2, 100 nM DPN, 100 nM PPT, 10 nM fulvestrant vs DMSO. The source says:
(§1) FIG. 10B depicts graphs of expression of CYP1B1 determined by RT-qPCR in lung and keratinocyte-derived SCC cell lines in parallel with HBECs and HKCs, respectively. […] Data are presented as mean fold change of fluorescence intensity±SD (*P<0.05). FIG. 10D depicts graphs of indicated SCC cells plated in duplicate on Matrigel precoated chambers with spheroid number quantification 10 days later by ImageJ™ analysis of whole-cell images. Data are duplicates±SD (*P<0.05).
(§2) Besides estrogen, other agonists have been developed with elevated specificity for either the ERα or ERß receptors (43).
(§3) Conditions for RT-qPCR, immunoblotting, immunofluorescence and ChIP assays were as previously reported (9, 42). For immunoblotting, unless otherwise indicated, cells were lysed in SDS sample buffer (50 mM Tris-HCl pH 6.8, 2% SDS, 10% glycerol, 0.2 unit nuclease) and protein separation was done in 15-well 4-12% NuPAGE Bis-Tris polyacrylamide gels (Invitrogen). Equal loading controls were done by re-probing the same immunoblots unless otherwise indicated. All assays were done at least twice, with two HKC strains or epidermal samples of independent origin.
Background: Real-time PCR tracks product formation cycle by cycle.

For the next assay, the system named is SCCO13 cells. Kind of assay: Intradermal tumorigenicity assay, ERß agonist study. It counts as in vivo, NOD/SCID mice. The protocol:
SCC013 cells were injected intradermally in the left supra-scapular region of NOD/SCID mice (1×10^6 cells per injection). […] Animals were sacrificed 10 days later. Tumor weight and volume were measured, followed by determination of Ki67-labeling index by immunofluorescence analysis of histological section. *P<0.05.
Lenti-virally-infected SCC13, SCCO13 cells and retro-virally infected H2170 cells were suspended in matrigel followed by intra-dermal injection (1.0×10^6 cells in 150 μl per injection) into the back skin of 6 weeks old NOD/SCID mice (Taconic Farms Inc. Germantown, N.Y.) as described (9, 42). To minimize the individual animal variations, cells infected with control and ERß expressing viruses were injected in parallel in the right and left flank of the same mice. Mice were sacrificed for tissue analysis 3 weeks (SCC13 and SCCO13) or 1 week (H2170) after injection. For ERß agonist studies, SCCO13 cells were injected intra-dermally into NOD/SCID mice as described above.

In another assay the test system is SCC cell lines. Kind of assay: Treatment of a panel of SCC cell lines with DPN, Notch1 and differentiation marker expression. It counts as cell-based, human.
From the text: as §1, §2, §3

Assay [2] relates to skin, oral, and lung SCC cells. Description: Spheroid formation assays of SCC cells in Matrigel. It counts as cell-based, human. As to conditions: spheroid number 10 days later, vs DMSO.
From the text: as §1
In vitro and animal model assays are provided herein which allow the assessment of a given dose of an agonist as described herein. By way of non-limiting example, the effects of a dose of an agonist can be assessed by spheroid assay. A non-limiting example of a protocol for such an assay is as follows: 8-well chamber slides are coated with matrigel (BDbiosciences, CA; 50 μl per well) and incubated at 37° C. for 20 minutes to allow matrigel to polymerize. SCC cells are brought into suspension in normal culture medium plus 1% matrigel (7000 cells/ml) and added in triplicates to the pre-coated chamber slides (300 μl of cell mixture per well). Medium is refreshed every other day. An agonist is added to the medium and cell growth and proliferation measured over time, e.g. by microscopy.
Clonogenicity and Alamar Blue assays were as reported (60). […]

A further assay relates to SCC cells. Description: Alamar blue cell density assays of SCC cells. The note with it: Alamar blue density assay, vs DMSO, refreshed every other day. The assay is classed as cell-based, human.
From the text: as §1
Clonogenicity and Alamar Blue assays were as reported (60). For spheroid assays, 8-well chamber slides were coated with matrigel (BDbiosciences, CA; 50 μl per well) and incubated at 37° C. for 20 minutes to allow matrigel to polymerize. SCC cells were brought into suspension in normal culture medium plus 1% matrigel (7000 cells/ml) and added in triplicates to the pre-coated chamber slides (300 μl of cell mixture per well). Medium was refreshed every other day. For organotypic cultures, HKCs were infected with shRNA expressing lentiviruses followed, 48 hours later, by selection for puromycin ([…]) resistance. Selected keratinocyte cultures were reseeded onto collagen gels with embedded J2-3T3 fibroblasts and cultured at the air-liquid interface as previously described (61). […]
Background: The colour change of resazurin is a common sign of viable cells or microbes.

Assay [3] deals with SCC13 (skin), SW900 (lung), and SCCO13 (oral) SCC cells. Kind of assay: DAPT treatment of SCC cells infected with ERβ-expressing viral vectors, RT-qPCR. It counts as cell-based, human. The note with it: DAPT 10 μM, added 24 hours after infection, analysis 72 hours later; involucrin and keratin 10. How it is done:
FIG. 9A depicts results of SCC cell lines infected with ERβ-expressing viral vectors versus controls as in FIGS. 8A-8E were analyzed for expression of the indicated proteins by immunoblotting. FIG. 9B depicts graphs of SCC13 (skin), SW900 (lung), and SCCO13 (oral) SCC cells infected with ERβ-expressing and control viral vectors were treated 24 hours after infection with DAPT (10 μM) or DMSO control followed, 72 hours later, by RT-qPCR analysis of involucrin and keratin 10 differentiation marker expression. *P<0.05.
To directly assess the impact of increased ERß signaling in SCC outgrowth, a panel of skin, oral and lung SCC cell lines were infected with ERß expressing versus control viruses. […] To test the in vivo impact of increased ERß expression, representative cell lines from skin (SCC13), head/neck (SCCO13) and lung SCCs (H2170) were assessed by intra-dermal tumorigenicity assays in immune compromised mice (42). Cells infected with the ERß expressing lentivirus formed tumors of similar size as the controls, but enhanced Notch1 expression and differentiation (FIGS. 9C-9D).
Conditions for RT-qPCR, immunoblotting, immunofluorescence and ChIP assays were as previously reported (9, 42). […]

Assay [4] concerns HKCs. Description: DAPT treatment of HKCs infected with Dlx5- and ERβ-expressing retroviruses, RT-qPCR. The assay is classed as cell-based, human. As to conditions: DAPT 10 μM, added 24 hours after infection, analysis 48 hours later. The protocol:
HKCs under differentiating conditions (100% confluence for 3 days: 100% cf+3D) were analyzed in parallel as point of reference. […] FIG. 5B depicts graphs of HKCs with or without infection with EGR3-, DLX5-, and ERβ-expressing retroviruses as in the previous panel were treated with DAPT (10 μM) or DMSO control at 24 hours after infection followed, 48 hours later, by RT-qPCR analysis of involucrin gene expression, with 36β4 for normalization. As an alternative, HKCs stably infected with a shRNA lentivirus against NOTCH1 or empty vector control were superinfected with the EGR3, DLX5, and ERβ expressing retroviruses, followed 72 hours later by RT-qPCR analysis of the same genes. FIG. 5C depicts graphs of HKCs with or without infection with EGR3-, DLX5-, and ERβ-expressing retroviruses as in FIG. 5A were analyzed, 72 hours after infection, by RT-qPCR of the indicated genes. *P<0.001.
Conditions for RT-qPCR, immunoblotting, immunofluorescence and ChIP assays were as previously reported (9, 42). For immunoblotting, unless otherwise indicated, cells were lysed in SDS sample buffer (50 mM Tris-HCl pH 6.8, 2% SDS, 10% glycerol, 0.2 unit nuclease) and protein separation was done in 15-well 4-12% NuPAGE Bis-Tris polyacrylamide gels (Invitrogen). Equal loading controls were done by re-probing the same immunoblots unless otherwise indicated. […]

Setting [5] is: SCCO13 tumors, 20 mg/kg daily, data not shown.

We go through 5 molecules from patent US10188747B2, “Methods and compositions for the treatment of cancer” (THE GENERAL HOSPITAL CORPORATION, priority 2014, dated 2019).

As for `C[C@]12CC[C@@H]3c4ccc(O)cc4C[C@@H](CCCCCCCCC[S+]([O-])CCCC(F)(F)C(F)(F)F)[C@H]3[C@@H]1CC[C@@H]2O` (some centres unmarked) [Fulvestrant], in the assay with HKCs [1], the Notch1 expression entry is reported as “suppressed” and the differentiation marker expression result is “suppressed”.

Take `C[C@]12CC[C@@H]3c4ccc(O)cc4CC[C@H]3[C@@H]1CC[C@@H]2O` [17β-estradiol]: in the assay with HKCs [1], the Notch1 expression result is “induction” and the differentiation marker expression result is recorded as “induction”.

Take `CCCc1c(-c2ccc(O)cc2)nn(-c2ccc(O)cc2)c1-c1ccc(O)cc1` [PPT, 1,3,5-Tris(4-hydroxyphenyl)-4-propyl-1H-pyrazole]: in the assay on HKCs [1], the Notch1 expression entry was “Little or no induction” and the differentiation marker expression entry is given as “Little or no induction”.

Turning to `N#CC(Cc1ccc(O)cc1)c1ccc(O)cc1` (centres unmarked) [DPN, 2,3-bis(4-Hydroxyphenyl)-propionitrile], the tumor size result in the assay on SCCO13 cells (SCCO13 cells intradermally, 20 mg/kg intraperitoneally daily for 10 days, vs DMSO vehicle) is on record as “significantly smaller size”. In the assay on SCCO13 cells (setting [5]), the “Notch1 expression in tumors” value was “increased” and the “differentiation marker expression in tumors” value is on record as “increased”. Besides, in the assay with SCC cell lines, the Notch1 expression entry was “induction” and the differentiation marker expression result was “induction”. For the same molecule, the “sphere forming capability of SCC cell lines” value in assay [2] is reported as “significantly suppressed”. In the assay on HKCs [1], the Notch1 expression result is on record as “induction” and the differentiation marker expression entry is “induction”. In addition, the “proliferation of SCC cell lines” value with SCC cells was “significantly suppressed”.

Regarding `C[C@H](NC(=O)Cc1cc(F)cc(F)c1)C(=O)N[C@H](C(=O)OC(C)(C)C)c1ccccc1` [DAPT], the “induction of differentiation marker expression by increased ERß expression” value in assay [3] is “significantly counteracted”. The “induction of Hey1 and involucrin by enhanced expression of Dlx5 and ERβ” value in the assay on HKCs [4] is recorded as “prevented to a large extent”.
